Assay [1] has as its system Magnaporthe grisea (Pyricularia oryzae—PYRIOR). Briefly: microbe, parasite or virus in culture. It is filed as cell-based. The settings on record: Pyricularia oryzae, read-out: PYRIOR in vitro Growth Inhibition.
For assay [2], the system named is Rhizoctonia solani (RHIZSO). In words: microbe, parasite or virus in culture. It is filed as cell-based. The settings on record: Rhizoctonia solani, read-out: RHIZSO in vitro Growth Inhibition.
Assay [3] relates to Mycosphaerella graminicola (Septoria tritici—SEPTTR). Briefly: In vitro fungal growth inhibition, Mycosphaerella graminicola (SEPTTR). The note with it: Zymoseptoria tritici, read-out: SEPTTR in vitro Growth Inhibition. It is filed as cell-based.
The subject of assay [4] is Stagonospora nodorum (Leptosphaeria nodorum—LEPTNO). Briefly: In vitro fungal growth inhibition, Stagonospora nodorum (LEPTNO). The note with it: Leptosphaeria, read-out: LEPTNO in vitro Growth Inhibition. It is filed as cell-based.
The test system of assay [5] is Ustilago maydis (USTIMA). In words: microbe, parasite or virus in culture. It is filed as cell-based. The settings on record: Mycosarcoma maydis, read-out: USTIMA in vitro Growth Inhibition.
Assay [6] has as its system Phytophthora infestans (PHYTIN). In words: microbe, parasite or virus in culture. It is filed as cell-based. The settings on record: Phytophthora infestans, read-out: PHYTIN in vitro Growth Inhibition.
Assay [7] concerns Phytophthora infestans—PHYTIN. In words: whole plant or invertebrate. It is filed as in vivo. The settings on record: Phytophthora, in Solanum lycopersicum, 24 h, read-out: PHYTIN in vivo 1 Day Protectant.
The test system of assay [8] is Puccinia recondita—PUCCRT. In words: Brown Rust of Wheat, in vivo whole plant, 24 Hour Protectant. The note with it: for pest or weed control at 100 ppm: Puccinia, read-out: PUCCRT in vivo 1 Day Protectant.
Assay [9] has as its system Erysiphe graminis—ERYSGT. Briefly: Powdery Mildew of Wheat, in vivo whole plant, 24 Hour Protectant. The note with it: Erysiphe, read-out: ERYSGT in vivo 1 Day Protectant.
In assay [10] the test system is Septoria tritici—SEPTTR. In words: Leaf Blotch of Wheat, in vivo whole plant, 24 Hour Protectant. The note with it: for pest or weed control at 100 ppm: Zymoseptoria tritici, 24 h, control of fungal infection vs untreated plants, read-out: SEPTTR in vivo 1 Day Protectant.
The subject of assay [11] is Leptosphaeria nodorum—LEPTNO. Briefly: Glume Blotch of Wheat, in vivo whole plant, 24 Hour Protectant. The settings on record: for pest or weed control at 100 ppm: Leptosphaeria, read-out: LEPTNO in vivo 1 Day Protectant.
The mark [12] stands for this setting: 100 ppm spray, 24 hour protectant, wheat, control of fungal infection vs untreated plants.
Where [13] appears, read: 100 ppm spray, 24 hour protectant, wheat.
The mark [14] stands for this setting: 100 ppm spray, wheat, 24 hour protectant, % control of fungal infection vs untreated plants.
Where [15] appears, read: 100 ppm spray, wheat, 24 hour protectant, control of fungal infection vs untreated plants.
Where [16] appears, read: 100 ppm spray, wheat, 24 hour protectant.
Where [17] appears, read: wheat plants sprayed at 100 ppm, inoculated after 24 hours, control of fungal infection vs untreated plants.
Where [18] appears, read: wheat plants sprayed at 100 ppm, inoculated after 24 hours.

The structures appear in SMILES notation. Read-outs that look alike come from different tables or passages of the source. Where only a bound is given, the exact number is not on record here.

Experimental findings from patent publication US6706740B2, “Fungicidal heterocyclic aromatic amides and their compositions, methods of use and preparation” (Dow AgroSciences LLC, priority 1999, dated 2004) are described below.

The inhibition is the percentage by which the read-out fell short of the control. `CCC1(C)OCC(NC(=O)c2nccc(OC)c2O)CO1` (stereo not drawn) [Compound 314]: the inhibition at 25 ppm in assay [1], in assay [2], in [3] (25 ppm in growth medium), in assay [4] (25 ppm in growth medium), in [5] and in assay [6] was < 80% throughout. For the same compound, the pest or weed control at 100 ppm in assay [7] is < 25%; in [8] (setting [12]), < 25%; in [9] (setting [12]) it was < 25%; in assay [10] (setting [13]) it was < 25%; in assay [11] (setting [12]), 25 to 74%.

Consider `COc1ccnc(C(=O)N[C@H]2COC(=O)[C@H](Cc3ccccc3)[C@@H](OC(=O)C(C)C)[C@H](C)OC2=O)c1OC(=O)COCc1ccccc1` [Compound 656], for which the inhibition at 25 ppm in assay [1] was > 80%; in assay [2], < 80%; in [3] (25 ppm in growth medium), < 80%; in assay [4] (25 ppm in growth medium) it was > 80%; in assay [5], < 80%; in [6], < 80%. Besides, the pest or weed control at 100 ppm in assay [7] and in assay [9] (setting [14]) was < 25% throughout. In [8] (setting [14]), the “PUCCRT in vivo 1 Day Protectant” value is listed as “+ +”. Moreover, in assay [10] (setting [14]), the “SEPTTR in vivo 1 Day Protectant” value was “+ +”. Moreover, the “LEPTNO in vivo 1 Day Protectant” value in assay [11] (setting [14]) is “+ +”.

As to `COc1ccnc(C(=O)NC2CC(C)(C)C(Cl)C(Cl)[C@H](C)[C@H]2C)c1O` (stereo partly drawn) [Compound 281], the inhibition at 25 ppm in [1] was > 80%; in assay [2] it was < 80%; in [3] (25 ppm in growth medium) it was < 80%; in [4] (25 ppm in growth medium), < 80%; in [5], < 80%; in [6], > 80%. In addition, the pest or weed control at 100 ppm in [7], in [8] (setting [12]), in assay [9] (setting [12]), in assay [10] (setting [13]) and in [11] (setting [12]) was 25 to 74% each time.

For the compound `COc1ccnc(C(=O)NC(COC(=O)C(Cc2ccccc2)C(C)OC(=O)C(C)C)C(=O)OC(C)C)c1O` (stereo not drawn) [Compound 355], the inhibition at 25 ppm in [1], in [2], in assay [3] (25 ppm in growth medium), in assay [4] (25 ppm in growth medium), in [5] and in assay [6] was < 80% in each case. Besides, the pest or weed control at 100 ppm in assay [7] is < 25%; in assay [8] (setting [15]), 25 to 74%; in assay [9] (setting [15]), < 25%; in [10] (setting [16]), < 25%; in [11] (setting [15]) it was < 25%.

`COc1ccc(C(C)NC(=O)c2ccncc2O)cc1` (stereo not drawn) [Compound 508]: the inhibition at 25 ppm in assay [1], in assay [2], in assay [3] (25 ppm in the growth medium), in assay [4] (25 ppm in the growth medium), in assay [5] and in assay [6] was < 80% each time. For the same compound, the pest or weed control at 100 ppm in assay [7], in assay [8] (setting [17]), in [9] (setting [17]), in assay [10] (setting [18]) and in assay [11] (setting [17]) was < 25% throughout.

Consider `COc1ccnc(C(=O)Nc2ccccc2Oc2ccccc2C#N)c1O` [Compound 418], for which the inhibition at 25 ppm in assay [1], in assay [2], in [3] (25 ppm in growth medium), in assay [4] (25 ppm in growth medium), in assay [5] and in [6] was < 80% throughout. In addition, the pest or weed control at 100 ppm in assay [7] is < 25%; in assay [8] (setting [15]), 25 to 74%; in assay [9] (setting [15]), < 25%; in assay [10] (setting [16]) it was < 25%; in assay [11] (setting [15]), < 25%.

As for `COc1ccnc(C(=O)NC2CC(C)(C)C=C[C@@H](C)[C@@H]2C)c1OC(C)=O` (stereo partly drawn) [Compound 578], the inhibition at 25 ppm in assay [1], in [2], in assay [3] (25 ppm in the growth medium), in assay [4] (25 ppm in the growth medium), in [5] and in [6] was < 80% throughout. Moreover, the pest or weed control at 100 ppm in assay [7] is < 25%; in [8] (setting [17]) it was < 25%; in assay [9] (setting [17]), < 25%; in assay [10] (setting [18]) it was 25 to 74%; in [11] (setting [17]), 25 to 74%.

Regarding `COc1ccnc(C(=O)N[C@@H]2CC3CC2C2C(=O)N(CC(C)C)C(=O)C32)c1O` (stereo partly drawn) [Compound 303], the inhibition at 25 ppm in assay [1], in assay [2], in [3] (25 ppm in growth medium), in assay [4] (25 ppm in growth medium), in assay [5] and in assay [6] was < 80% each time. Further, the pest or weed control at 100 ppm in assay [7] was 25 to 74%; in assay [8] (setting [12]), < 25%; in assay [9] (setting [12]), < 25%; in assay [10] (setting [13]), 25 to 74%; in assay [11] (setting [12]), 25 to 74%.

Turning to `COc1ccnc(C(=O)N[C@H]2COC(=O)[C@H](Cc3ccccc3)[C@@H](OC(=O)C3CCCC3)[C@H](C)OC2=O)c1O` [Compound 391], the inhibition at 25 ppm in assay [1] is > 80%; in [2], < 80%; in assay [3] (25 ppm in growth medium) it was > 80%; in assay [4] (25 ppm in growth medium) it was > 80%; in assay [5], > 80%; in assay [6] it was < 80%. Moreover, the pest or weed control at 100 ppm in assay [7] is < 25%; in [8] (setting [15]) it was 25 to 74%; in [9] (setting [15]), < 25%; in [10] (setting [16]), 25 to 74%. Further, the “LEPTNO in vivo 1 Day Protectant” value in assay [11] (setting [15]) was “+ +”.

Turning to `COC(=O)C(COC(=O)C(COC(=O)C(C)C)Cc1ccccc1)NC(=O)c1nccc(OC)c1O` (stereo not drawn) [Compound 349], the inhibition at 25 ppm in assay [1], in assay [2], in assay [3] (25 ppm in growth medium), in assay [4] (25 ppm in growth medium), in assay [5] and in assay [6] was < 80% each time. For the same compound, the pest or weed control at 100 ppm in assay [7], in [9] (setting [15]), in assay [10] (setting [16]) and in assay [11] (setting [15]) was < 25% throughout. In [8] (setting [15]), the “PUCCRT in vivo 1 Day Protectant” value is on record as “+ +”.

For `COc1ccnc(C(=O)NCC#CCCl)c1O` [Compound 239], the inhibition at 25 ppm in [1], in assay [2], in [3] (25 ppm in growth medium), in assay [4] (25 ppm in growth medium), in assay [5] and in assay [6] was < 80% in each case. Moreover, the pest or weed control at 100 ppm in [7] is < 25%; in assay [8] (setting [12]) it was 25 to 74%; in assay [9] (setting [12]) it was < 25%; in assay [10] (setting [13]) it was 25 to 74%; in assay [11] (setting [12]), 25 to 74%.

As to `COc1ccnc(C(=O)NC2C[C@H](C)C[C@H](c3ccccn3)C2)c1O` (stereo partly drawn) [Compound 259], the inhibition at 25 ppm in [1], in [2], in assay [3] (25 ppm in growth medium), in assay [4] (25 ppm in growth medium), in [5] and in assay [6] was < 80% throughout. The pest or weed control at 100 ppm in [7] was 25 to 74%; in [8] (setting [12]) it was 25 to 74%; in [9] (setting [12]) it was < 25%; in assay [10] (setting [13]) it was 25 to 74%; in assay [11] (setting [12]) it was 25 to 74%.
